Test results from patent US20220387358A1, “CERAMIDE ANALOG SACLAC MODULATES SPHINGOLIPID LEVELS AND MCL-1 SPLICING TO INDUCE APOPTOSIS IN ACUTE MYELOID LEUKEMIA” (University of Virginia Patent Foundation, priority 2019, published 2022).

Key:
[1] = Solubility in vehicles for i.v. drug delivery; assay type: physicochemical
[2] = Pharmacokinetics, SACLAC in blood/serum by mass spectrometry; assay type: in vivo
Experimental: More particularly, maximum tolerated dose of SACLAC was determined in NOD-scid IL2Rgamma^null (NSG) mice (n=5; Jackson Laboratories, Bar Harbor, Me., United States of America). Mice were injected with SACLAC reconstituted in β-HPCD (IV) daily for 5 days at a dose of 5 mg/kg body weight, respectively. For pharmacokinetics studies, Swiss Webster mice (n=3; Charles River Laboratories, Wilmington, Mass., United States of America) were injected with SACLAC dissolved in DMSO (40 mg/kg body weight, intraperitoneally) or dissolved in β-HPCD (5 mg/kg body weight, via tail-vein injection). Mice were euthanized and blood was harvested at time points ranging from 0 to 48 hours. Serum concentration of SACLAC was measured by mass spectrometry quantification relative to SACLAC standard using the method referenced above.

[3] = Mouse serum SACLAC levels by formulation and route; assay type: in vivo
Experimental: More particularly, SACLAC was dissolved in 2-hydroxypropyl-β-cyclodextrin (β-HPCD) (53). In addition, a SACLAC nanoliposome was prepared.

KG1a cells = assay: Rescue from SACLAC-induced apoptosis by Mcl-1S knockdown; assay type: cell-based, human; conditions: 10 μM SACLAC 48 hours; siRNA (100 nM) targeting MCL-1S vs scrambled
Experimental: Apoptosis in cell lines was assessed after treating 2.5×10^5 cells per ml with drug or vehicle in a 48-well plate for the indicated time points and doses. Primary human AML cells were pre-incubated with SFEM for 48 hours before plating 2×10^5 cells in 24-well plates for the indicated times point and doses. Samples were stained using the Muse Annexin V & Dead Cell Kit (Millipore #MCH100105). Change in mitochondrial membrane potential in cell lines was measured with the Muse® MitoPotential Kit (#MCH100110, MilliporeSigma, Burlington, Mass., United States of America). Caspase activation was measured using the Muse® Caspase 3/7 Assay Kit (#MCH100108, MilliporeSigma, Burlington, Mass., United States of America). For rescue experiments, cells were plated at 2.5×10^4 well in a 96-well plate 24 hours after electroporation. Cells were treated with DMSO or SACLAC for 48 hours and apoptosis was detected as stated above. All kits were used according to manufacturer's protocol. Cells were then analyzed using the Muse® Cell Analyzer (MilliporeSigma, Burlington, Massachusetts, United States of America) (35,36). Experiments included positive and negative controls for proper analysis. […]

CCCCCCCCCCCCCCC[C@@H](O)[C@H](CO)NC(=O)CCl [SACLAC, N-[(2S,3R)-1,3-dihydroxyoctadecan-2-yl]2-chloroacetamide]
solubility in vehicles for i.v. drug delivery [1]: low solubility
maximal serum concentration, IV vs IP delivery ([2]; 5 mg/kg i.v. in β-HPCD vs 40 mg/kg i.p. in DMSO): higher maximal serum concentration than IP delivery
half-life in the blood ([2]; 40 mg/kg i.p. in DMSO or 5 mg/kg i.v. in β-HPCD): short half-life
peak serum SACLAC levels ([2]; after changing administration route and vehicle): less than 1 μM
uptake following i.p. injection ([2]; mouse, in vivo, ip): suboptimal uptake
clearance ([3]; all treatment groups): rapidly cleared
serum levels ([3]; free SACLAC in DMSO, i.p.): low serum levels
maximum serum level ([3]; maximum over the formulations tested): ~1 µM
serum levels ([3]; β-HPCD, i.v.): improvement
apoptosis induction reduced by, in Mcl-1S knockdown cells (KG1a cells): 36%
